Results taken from article PMC3408500, “Development of a High-Throughput Assay for Identifying Inhibitors of TBK1 and IKKε” (PLoS ONE, 2012).
Where “and” joins values, the source holds several entries; their conditions need not be identical. Identical values can stand only once. Counter-ions that a name gives are not always drawn. Like-named read-outs stand apart in the source and are kept apart here.

Columns and labels:
IKKα = target: T1, IKKα (Homo sapiens, UniProt O15111); assay: MCE kinase assay, phosphorylation of FL-1 peptide by IKKα (secondary screen); assay type: biochemical; details: for inhibition at 10 µM: read-out: percent inhibition of IKKα
T1 construct: purchased Life Technologies (Invitrogen)
T1 sequence (O15111 1-745): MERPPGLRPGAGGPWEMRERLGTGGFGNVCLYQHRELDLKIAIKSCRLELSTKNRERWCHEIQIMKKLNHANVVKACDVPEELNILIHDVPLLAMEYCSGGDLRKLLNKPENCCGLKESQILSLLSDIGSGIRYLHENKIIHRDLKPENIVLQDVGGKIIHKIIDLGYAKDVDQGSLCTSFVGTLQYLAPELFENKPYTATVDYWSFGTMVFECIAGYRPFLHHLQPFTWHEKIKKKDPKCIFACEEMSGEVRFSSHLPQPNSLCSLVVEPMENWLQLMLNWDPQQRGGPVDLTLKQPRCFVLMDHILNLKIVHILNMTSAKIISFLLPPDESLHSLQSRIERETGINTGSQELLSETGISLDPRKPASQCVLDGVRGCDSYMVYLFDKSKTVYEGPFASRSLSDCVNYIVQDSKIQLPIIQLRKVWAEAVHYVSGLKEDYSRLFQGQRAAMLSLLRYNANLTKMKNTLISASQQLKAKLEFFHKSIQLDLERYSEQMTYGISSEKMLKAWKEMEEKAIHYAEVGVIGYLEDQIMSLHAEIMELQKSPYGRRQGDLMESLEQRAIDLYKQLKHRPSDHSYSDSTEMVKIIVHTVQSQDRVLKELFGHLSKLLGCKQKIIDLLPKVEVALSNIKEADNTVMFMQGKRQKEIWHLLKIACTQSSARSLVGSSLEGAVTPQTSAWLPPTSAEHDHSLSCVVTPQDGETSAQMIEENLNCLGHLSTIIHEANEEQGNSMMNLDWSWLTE
Procedure: As IKKβ and IKKα are closely related to TBK1 and IKKε, it was important to determine the specificity of any candidate inhibitors. A secondary screen was therefore performed to evaluate the ability of the top-scoring TBK1 and IKKε inhibitors to inhibit the canonical IKKs. […] Enzyme concentrations were titrated and fixed to 11.5 µM for IKKα and 1.1 µM for IKKβ and the screen was performed as described above for TBK1 and IKKε. […]
Kinase buffer contained 50 mM Tris (pH 7.5), 12 mM MgCl2, 1 mM β-glycerophosphate, 100 µM ATP, and 10 µCi γ-^32P-ATP/reaction. Reactions were incubated at 30°C for 1h. Recombinant GST-TBK1 and GST-TBK1 K38A used in the positional scanning peptide library assay were generated as described above and the assay was performed as described previously, [28]. […]

TBK1 = target: T2, TBK1 (Homo sapiens, UniProt Q9UHD2); assay: MCE (microfluidic capillary electrophoresis) kinase assay, phosphorylation of 5-FAM-TBK1-Tide by TBK1; assay type: biochemical; details: for inhibition at 10 µM: read-out: percent inhibition of TBK1
T2 construct: purchased Life Technologies (Invitrogen)
T2 sequence (Q9UHD2 1-729): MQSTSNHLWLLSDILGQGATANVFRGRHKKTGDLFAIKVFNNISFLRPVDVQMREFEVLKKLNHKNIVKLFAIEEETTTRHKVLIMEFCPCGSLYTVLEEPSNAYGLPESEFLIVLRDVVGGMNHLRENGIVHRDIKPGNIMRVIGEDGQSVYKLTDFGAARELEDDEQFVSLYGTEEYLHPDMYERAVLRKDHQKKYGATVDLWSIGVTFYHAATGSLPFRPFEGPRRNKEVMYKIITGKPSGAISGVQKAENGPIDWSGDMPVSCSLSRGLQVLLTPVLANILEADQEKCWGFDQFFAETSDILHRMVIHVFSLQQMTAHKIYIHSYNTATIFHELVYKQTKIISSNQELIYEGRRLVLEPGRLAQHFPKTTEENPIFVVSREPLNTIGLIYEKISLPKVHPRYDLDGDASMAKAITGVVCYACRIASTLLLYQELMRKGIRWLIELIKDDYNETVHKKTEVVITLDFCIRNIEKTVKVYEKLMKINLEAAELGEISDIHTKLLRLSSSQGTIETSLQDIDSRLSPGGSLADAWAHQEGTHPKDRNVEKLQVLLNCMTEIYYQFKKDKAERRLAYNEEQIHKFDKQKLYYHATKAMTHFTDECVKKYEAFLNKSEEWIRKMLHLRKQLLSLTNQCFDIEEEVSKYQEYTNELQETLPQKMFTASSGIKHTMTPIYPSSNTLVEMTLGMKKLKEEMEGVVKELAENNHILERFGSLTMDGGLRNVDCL
Procedure: (§1) MCE operates on the principle that small fluorescently-labeled peptide substrates from ∼100 nanoliter sized aliquots of reaction samples are separable in a capillary channel etched in a quartz microfluidic chip ratio when a current is applied, [30]. […] TBK1-Tide was synthesized with an N-terminal 5– Carboxyfluorescein (5-FAM) dye for use as a substrate. […] The enzyme concentrations were then titrated and fixed to 120 nM for TBK1 and 81 nM for IKKε.
(§2) Compounds were screened at a final concentration of 10 µM in 0.1% DMSO. Two libraries of compounds were tested. […] This library was tested in duplicate to establish the reproducibility of the screen (Figure S2). A second kinase-focused library consisting of 4,727 unique and “rule of five” compliant compounds was also tested (Figures 5A and B). […]

IKKε = target: T3, IKKε (Homo sapiens, UniProt Q14164); assay: MCE kinase assay, phosphorylation of 5-FAM-TBK1-Tide by IKKε; assay type: biochemical; details: for inhibition at 10 µM: read-out: percent inhibition of IKKε
T3 construct: purchased Life Technologies (Invitrogen)
T3 sequence (Q14164 1-716): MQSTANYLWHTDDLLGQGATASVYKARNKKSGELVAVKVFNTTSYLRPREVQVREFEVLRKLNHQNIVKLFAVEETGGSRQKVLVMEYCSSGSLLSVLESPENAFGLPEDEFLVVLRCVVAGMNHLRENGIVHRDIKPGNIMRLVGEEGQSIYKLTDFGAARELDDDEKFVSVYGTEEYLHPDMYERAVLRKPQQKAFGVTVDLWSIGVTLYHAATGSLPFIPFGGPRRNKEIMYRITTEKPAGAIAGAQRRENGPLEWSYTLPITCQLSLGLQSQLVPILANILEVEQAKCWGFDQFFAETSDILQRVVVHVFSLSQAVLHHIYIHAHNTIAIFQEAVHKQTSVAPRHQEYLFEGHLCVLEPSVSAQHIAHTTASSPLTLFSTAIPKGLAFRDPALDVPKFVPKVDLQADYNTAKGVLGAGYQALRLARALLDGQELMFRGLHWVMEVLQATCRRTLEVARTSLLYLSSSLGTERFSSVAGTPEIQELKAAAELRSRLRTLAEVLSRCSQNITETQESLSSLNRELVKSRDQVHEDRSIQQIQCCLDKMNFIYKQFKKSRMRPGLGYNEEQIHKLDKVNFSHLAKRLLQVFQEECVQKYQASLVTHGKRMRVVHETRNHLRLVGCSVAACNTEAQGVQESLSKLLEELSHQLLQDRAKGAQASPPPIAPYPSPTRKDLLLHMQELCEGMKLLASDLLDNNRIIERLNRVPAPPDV
Procedure: as §1, §2

IKKβ = IKKβ (Homo sapiens, UniProt O14920); details: read-out: ATP Km of IKKβ for TBK1-Tide; room temperature
Sequence of IKKβ (O14920 whole entry): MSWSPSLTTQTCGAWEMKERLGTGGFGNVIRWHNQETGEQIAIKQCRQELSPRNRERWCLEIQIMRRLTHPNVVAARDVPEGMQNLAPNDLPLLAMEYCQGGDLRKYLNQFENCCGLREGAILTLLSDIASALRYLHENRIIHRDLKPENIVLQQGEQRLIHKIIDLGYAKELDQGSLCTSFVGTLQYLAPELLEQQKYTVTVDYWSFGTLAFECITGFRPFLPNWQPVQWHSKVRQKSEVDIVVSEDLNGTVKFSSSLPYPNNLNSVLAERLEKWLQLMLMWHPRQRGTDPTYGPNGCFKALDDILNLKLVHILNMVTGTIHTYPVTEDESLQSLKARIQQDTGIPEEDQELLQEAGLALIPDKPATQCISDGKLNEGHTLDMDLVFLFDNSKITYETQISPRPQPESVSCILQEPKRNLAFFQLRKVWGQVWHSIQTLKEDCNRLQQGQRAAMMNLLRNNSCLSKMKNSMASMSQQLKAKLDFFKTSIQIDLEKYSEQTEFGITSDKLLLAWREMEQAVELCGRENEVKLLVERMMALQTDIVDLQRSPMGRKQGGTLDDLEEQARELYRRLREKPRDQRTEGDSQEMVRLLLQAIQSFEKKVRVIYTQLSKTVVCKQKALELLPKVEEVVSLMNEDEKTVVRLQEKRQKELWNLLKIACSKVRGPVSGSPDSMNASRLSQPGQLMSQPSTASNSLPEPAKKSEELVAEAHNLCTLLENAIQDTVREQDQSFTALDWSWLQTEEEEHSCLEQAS
Procedure: As IKKβ and IKKα are closely related to TBK1 and IKKε, it was important to determine the specificity of any candidate inhibitors. A secondary screen was therefore performed to evaluate the ability of the top-scoring TBK1 and IKKε inhibitors to inhibit the canonical IKKs. […] Enzyme concentrations were titrated and fixed to 11.5 µM for IKKα and 1.1 µM for IKKβ and the screen was performed as described above for TBK1 and IKKε.
5-FAM-labeled TBK1-Tide for library screening was generated in the High-Throughput Peptide Synthesis and Arrays Core Facility at University of North Carolina at Chapel Hill.
Kinase buffer contained 50 mM Tris (pH 7.5), 12 mM MgCl2, 1 mM β-glycerophosphate, 100 µM ATP, and 10 µCi γ-^32P-ATP/reaction. Reactions were incubated at 30°C for 1h. Recombinant GST-TBK1 and GST-TBK1 K38A used in the positional scanning peptide library assay were generated as described above and the assay was performed as described previously, [28]. […] IKKε reactions were incubated for 2 hours at room temperature and TBK1, IKKα, and IKKβ reactions were incubated for 6 hours at room temperature.

ERRα = test system: ERRα; parameters: method as in LOPAC library description; details: transient transfection assays using GAL4-ERR LBD or full-length ERR with the mSHP promoter; ref LOPAC library description; cited from earlier work
[1] = compound at 10 µM, after 2 hours (at completion of the assay), LOPAC set

| Compound | percent inhibition of IKKα (IKKα; [1]) [%] | percent inhibition of TBK1 (TBK1; [1]) [%] | percent inhibition of IKKε (IKKε; [1]) [%] | inhibition at 10 µM (IKKα; [1]) [%] | inhibition at 10 µM (TBK1; [1]) [%] | inhibition at 10 µM (IKKε; [1]) [%] | further results |
| --- | --- | --- | --- | --- | --- | --- | --- |
| NC(Cc1cc(O)c(O)cc1O)C(=O)O (racemic) [UNC10100691, 6-Hydroxy-DL-DOPA] | 29 | 77.5 | 61 |  |  |  |  |
| Nc1ncnc2c1ncn2[C@@H]1O[C@H](COP(=O)(O)OP(=O)(O)OP(=O)(O)O)[C@@H](O)[C@H]1O [ATP] |  |  |  |  |  |  | Km (IKKα; room temperature, read-out: ATP Km of IKKα for FL-1): 134 µM; Km (TBK1; TBK1-Tide fixed at 1 µM, room temperature, read-out: Km for ATP, TBK1): 7.5 µM and 7.54 µM; Km (IKKε; TBK1-Tide fixed at 1 µM, room temperature, read-out: Km for ATP, IKKε): 4.7 µM and 4.67 µM; Km (IKKβ): 2 µM |
| CC(=O)NCCc1c[nH]c2ccccc12 [UNC10100161, N-Acetyltryptamine] |  |  |  | -1.5 | 74.5 | 24 |  |
| COc1ccc2c(c1)/C(=C/c1cnc[nH]1)C(=O)N2 [UNC10100994, SU9516] |  |  |  | 21.5 | 85.5 | 66 |  |
| Nc1c(S(=O)(=O)O)cc(Nc2ccc(Nc3nc(Cl)nc(Nc4cccc(S(=O)(=O)O)c4)n3)c(S(=O)(=O)O)c2)c2c1C(=O)c1ccccc1C2=O [UNC10101110, Reactive Blue 2] |  |  |  |  |  |  | inhibition at 10 µM (IKKα): 55.5%; inhibition at 10 µM (TBK1): 74%; inhibition at 10 µM (IKKε): 67% |
| COc1cc(/C=C(\C#N)C(=O)Nc2nnc(C(F)(F)F)s2)ccc1OCc1ccc(C(F)(F)F)cc1C(F)(F)F [UNC10101318, XCT790] | 28 | 71.5 | 10.5 |  |  |  | IC50 (ERRα): […] |

Second part, led by results:

| percent inhibition of IKKα (IKKα; [1]) [%] | percent inhibition of TBK1 (TBK1; [1]) [%] | percent inhibition of IKKε (IKKε; [1]) [%] | inhibition at 10 µM (IKKα; [1]) [%] | inhibition at 10 µM (TBK1; [1]) [%] | inhibition at 10 µM (IKKε; [1]) [%] | Compound | further results |
| --- | --- | --- | --- | --- | --- | --- | --- |
| -3 | 84.5 | 48 |  |  |  | CN(C)CCC(c1ccc(Cl)cc1)c1ccccn1.O=C(O)/C=C\C(=O)O (racemic) [UNC10100321, (±)-Chlorpheniramine maleate salt] |  |
| -2 | 70 | 26.5 |  |  |  | Brc1ccc([C@H]2CN3CCSC3=N2)cc1.O=C(O)C(=O)O [UNC10100081, (−)-p-Bromolevamisole oxalate] |  |
| 2.5 | 58 | 68 |  |  |  | O=C1Nc2ccccc2/C1=C1/Nc2ccccc2/C1=N\O [UNC10100206, Indirubin-3′-oxime] |  |
|  |  |  | -0.5 | 34 | 60 | CC(=O)OCC1=C(C(=O)O)N2C(=O)[C@@H](NC(=O)CSc3ccncc3)[C@H]2SC1 [UNC10100339, Cephapirin sodium salt] |  |
|  |  |  | 10 | 76.5 | 53.5 | Oc1c2ccccc2c2c3c(cccc13)N=N2 [UNC10100533, SP600125] |  |
| 3 | 67.5 | 12.5 |  |  |  | O=c1cc(-c2ccccc2F)[nH]c2cc3c(cc12)OCO3 [UNC10100799, CHM-1 hydrate] |  |
| -0.5 | 80.5 | 20 |  |  |  | CN(C)CCC(c1ccccc1)c1ccccn1.O=C(O)/C=C\C(=O)O (centres unmarked) [UNC10101037, Pheniramine maleate salt] |  |
